The subject of one series is ICR mice. The series is described as follows: Acute toxicity assay. It is filed as in vivo. To be noted: oral 100, 250 mg/kg; observation over two weeks. As for the experimental part: In order to investigate acute toxicity of the indole derivatives according to the present invention, mice (20±5 g, Central Lab. Animal Inc.) and rats (235±10 g, Central Lab. Animal Inc.) were used for the acute toxicity assay of compound 1.
A total of […] of 10 ICR mice were orally administered with compound 1 according to the present invention by the dose of 100, 250 mg/kg, respectively.

Another series concerns HuTu80 cells. Kind of series: DGAT activity inhibitory effect in HuTu80 cells (triglyceride production from [14C]oleate). It is filed as cell-based, human. To be noted: for activity at 10 µM / inhibition at 10 µM / activity at 0.3 µM / activity at 1 µM / activity at 3 µM: Homo sapiens, HuTu80; for activity at 10 µM / activity at 0.3 µM / activity at 1 µM / activity at 3 µM: read-out: Triglyceride Production Rate (% of control)/HuTu80cells; for inhibition at 10 µM / inhibition of biosynthesis of triglycerides (in words): Hutu 80 cells; for inhibition at 10 µM: read-out: inhibitory activity on intracellular biosynthesis of triglycerides. As for the experimental part:
HuTu80 cells were seeded in 24-well culture plate by 2×10^5 cells/well. After 24 hr, the medium was exchanged with FBS-free DMEM and concurrently treated with sample and substrate. For the substrate, 0.5 μCi [^14C]oleate was respectively added and allowed to react for 2 hr. After the reaction, the substrate that was either not absorbed into cells or not used for the reaction were washed with PBS two times, and total fat containing triglyceride was extracted by adding 1 ml extraction solvent (n-hexane/2-propanol=3/2, v/v). The extract was concentrated with nitrogen gas. The total fat after elimination of extraction solvent was dissolved in organic solvent (chloroform/methanol=2/1, v/v), spotted on thin layer chromatography (TLC: silica gel 60F254, 0.5 mm, Merck), and developed on developing solvent (n-hexane/diethyl ether/acetic acid=80/20/1, v/v/v). After isolating triglyceride (R∫ value: 0.4) from TLC, exposing to the film with photosensitivity to energy of radioactive elements (imaging plate's Fujifilm, BAS-MS 2040) for 3 hr, and the radioactive dose of triglyceride was measured by conducting image analysis (FLA 7000).
The remaining cells after the extraction were dissolved in 0.3 ml 0.1N NaOH to measure the protein concentration of the cells used for the reaction. The protein quantification was performed with Lowry method-based, protein quantification kit (Bio-Rad). After seeding protein on 96-well, round bottom culture plate, 25 μl of solution containing 1 ml protein analysis reagent (bio-rad, alkaline copper tartrate solution) and 20 μl protein reagent S (bio-rad, surfactant solution) was seeded per well, to induce reaction between copper ion and protein. After reaction with copper ion, 200 μl reagent B (bio-rad, folin reagent) was seeded per well to allow reduction reaction of the folin reagent to occur. For the amount of protein, the light absorptivity at 750 nm was measured based on the blue coloring of the folin reagent as the reduction occurred, and the concentrations of the protein corresponding to respective light absorptivities were quantified by obtaining standard curves with the standard material as bovine serum albumin (BSA). Using the experiment value, which is obtained by dividing the measured radiation dose of the triglyceride by the protein concentration, the above process was repeated three or more times, and the mean value with ±standard error was obtained, as tabulated below.

A further series concerns C57BL/6J mice. The series is described as follows: Oral lipid tolerance test (OLTT), corn oil load. The format is in vivo. As to conditions: for increase of triglyceride concentration: 30 mg/kg; for effect on blood triglyceride concentration (in words): administered to mice. As for the experimental part: For experiment, 8-week-old male C57BL/6J mice were purchased from Biolink, adapted to environment in bio clean room (Temp. 22±3° C., Humidity 50±10%, Lighting 12 hr interval) for 1 week, and one day before the experiment, fasted for 16 hr. The mice were allowed to freely eat radiation-sterilized solid rodent feed (Harlan, Ind., USA), except for the 16 hr fasting period before the administration of test sample, and were also allowed to freely have a sufficient amount of drinking water which was sterilized in autoclave throughout the test period.
Seven C57BL/6J mice were allocated for solvent control group (V.C., Vehicle Control), and another seven for experimental group (sample group), after which sample was administered as follows.
The normal control group was administered with administration medium (0.5% CMC; carboxy methyl cellulose) only, while the experimental group was orally administered with the compounds of Examples 27 and 49 by 10, 30 mg/kg concentrations, respectively. Before administering the samples to all the animals of the experimental group, the animals were fasted for 16 hr, after which the corresponding sample was orally administered one time, using sonde for oral administration. After 60 min, 6 ml/kg liquid measure of corn oil was orally administered. Blood samples were taken immediately before administration of the corn oil (at 0 hr), and after the corn coil administration, the blood samples were taken directly using heparin-treated capillary tube from retro-orbital sinus at predetermined time (at 2 hr and at 4 hr). The blood samples were centrifuged at 3,000 rpm for 10 min to separate plasma, and the concentration of triglyceride was directly analyzed with automated hematology chemistry analyzer (Hitachi 7150, Japan).

[1] abbreviates: 10 mg/kg oral, 0 hr (immediately before corn oil).
[2] abbreviates: 10 mg/kg oral, 2 hr after corn oil.
[3] abbreviates: 10 mg/kg oral, 4 hr after corn oil.
The mark [4] stands for this setting: 30 mg/kg oral, 0 hr (immediately before corn oil).
[5] abbreviates: 30 mg/kg oral, 2 hr after corn oil.
[6] abbreviates: 30 mg/kg oral, 4 hr after corn oil.
Where [7] appears, read: after 2 hr of corn oil administration.
Where [8] appears, read: after 4 hr of corn oil administration.

Consider `CC(C)N(NC(=O)c1ccccc1)C(=O)/C=C/c1cn(C(=O)OC(C)(C)C)c2ccccc12` [Example 1, (E)-tert-butyl 3-(3-(2-benzoyl-1-isopropylhydrazinyl)-3-oxoprop-1-enyl)-1H-indole-1-carboxylate], for which, in the series on ICR mice, the death result is “no death” and the “difference on the outside” value was “nor did the groups show any specific difference on the outside”.

Consider `CC(C)=CCn1cc(/C=C/C(=O)N(NC(=O)c2ccccc2)C(C)C)c2ccccc21` [Example 27, (E)-N′-isopropyl-N′-(3-(1-(3-methylbut-2-enyl)-1H-indol-3-yl)acryloyl)benzohydrazide], for which, in the series with HuTu80 cells, the activity at 10 µM was 13.1 ± 0.9%. Moreover, in the series on HuTu80 cells, the inhibition at 10 µM lay within 70 to 80%. Moreover, the “Serum TG” value with C57BL/6J mice (setting [1]) is 62.8 ± 20.6 mg/dL; in the series on C57BL/6J mice (setting [2]), 171.0 ± 61.7 mg/dL; in the series with C57BL/6J mice (setting [3]), 83.0 ± 22.8 mg/dL; in the series on C57BL/6J mice (setting [4]) it was 45.4 ± 7.2 mg/dL; with C57BL/6J mice (setting [5]), 104.2 ± 40.3 mg/dL; in the series on C57BL/6J mice (setting [6]), 79.8 ± 37.3 mg/dL. The “increase of triglyceride concentration” value is recorded as “approximately 1.9 fold” with C57BL/6J mice (setting [7]) and “approximately 1.1 fold” in the series with C57BL/6J mice (setting [8]). Further, the “effect on blood triglyceride concentration (in words)” value in the series on C57BL/6J mice was “superior effect of decreasing blood triglyceride concentration”.

In the case of `CC(C)N(NC(=O)c1ccc(F)cc1)C(=O)/C=C/c1cn(C(=O)OC(C)(C)C)c2ccccc12` [Example 44, (E)-tert-butyl 3-(3-(2-(4-fluorobenzoyl)-1-isopropylhydrazinyl)-3-oxoprop-1-enyl)-1H-indole-1-carboxylate], in the series on HuTu80 cells, the activity at 0.3 µM worked out at 63.9 ± 4.3%, the activity at 1 µM came out at 43.7 ± 0.3%, the activity at 3 µM came out at 29 ± 0.9% and the activity at 10 µM was found to be 20 ± 1.2%. Moreover, in the series on HuTu80 cells, the inhibition at 10 µM was in the range of 70 to 80% and the “inhibition of biosynthesis of triglycerides (in words)” value (“inhibition … (in words)” for short) was “inhibited biosynthesis of triglycerides in a concentration-dependent manner”.

Consider `CC(C)CCn1cc(/C=C/C(=O)N(NC(=O)c2ccc(F)cc2)C(C)C)c2ccccc21` [Example 46, (E)-4-fluoro-N′-(3-(1-isopentyl-1H-indol-3-yl)acryloyl)-N′-isopropylbenzohydrazide], for which, in the series with HuTu80 cells, the activity at 0.3 µM was determined as 30 ± 0.3%, the activity at 1 µM amounted to 30 ± 1.3%, the activity at 3 µM came out at 20 ± 1.2% and the activity at 10 µM stood at 20 ± 1.8%. In addition, in the series with HuTu80 cells, the inhibition at 10 µM lay within 70 to 80% and the “inhibition … (in words)” value is “inhibited biosynthesis of triglycerides in a concentration-dependent manner”.

For `Cc1cccc(C(=O)NN(C(=O)/C=C/c2cn(C(=O)OC(C)(C)C)c3ccccc23)C(C)C)c1` [Example 47, (E)-tert-butyl 3-(3-(1-isopropyl-2-(3-methylbenzoyl)hydrazinyl)-3-oxoprop-1-enyl)-1H-indole-1-carboxylate], in the series on HuTu80 cells, the activity at 0.3 µM was found to be 56.1 ± 0.1%, the activity at 1 µM is 30.2 ± 1.2%, the activity at 3 µM stood at 19 ± 5% and the activity at 10 µM was determined as 13.7 ± 1.5%. Further, in the series on HuTu80 cells, the inhibition at 10 µM lay within 70 to 80% and the “inhibition … (in words)” value was “inhibited biosynthesis of triglycerides in a concentration-dependent manner”.

On to `Cc1ccc(C(=O)NN(C(=O)/C=C/c2cn(C(=O)OC(C)(C)C)c3ccccc23)C(C)C)cc1` [Example 48, (E)-tert-butyl 3-(3-(1-isopropyl-2-(4-methylbenzoyl)hydrazinyl)-3-oxoprop-1-enyl)-1H-indole-1-carboxylate], for which the activity at 10 µM with HuTu80 cells was found to be 23.9 ± 0.8%.

Turning to `CC(C)=CCn1cc(/C=C/C(=O)N(NC(=O)c2ccc(F)cc2)C(C)C)c2ccccc21` [Example 49, (E)-4-fluoro-N′-isopropyl-N′-(3-(1-(3-methylbut-2-enyl)-1H-indol-3-yl)acryloyl)benzohydrazide], in the series on HuTu80 cells, the activity at 0.3 µM was determined as 66.9 ± 3%. For the same compound, the activity at 1 µM in the series on HuTu80 cells amounted to 33.4 ± 4.4%. Moreover, the activity at 3 µM in the series on HuTu80 cells turned out to be 21.4 ± 0.3%. Moreover, in the series with HuTu80 cells, the activity at 10 µM worked out at 13.1 ± 0.9%. Further, in the series on HuTu80 cells, the inhibition at 10 µM was 70 to 80%. Further, the “inhibition … (in words)” value in the series with HuTu80 cells is reported as “inhibited biosynthesis of triglycerides in a concentration-dependent manner”. In addition, the “Serum TG” value in the series on C57BL/6J mice (setting [1]) is 78.8 ± 23.2 mg/dL; with C57BL/6J mice (setting [2]), 90.8 ± 28.2 mg/dL; with C57BL/6J mice (setting [3]), 43.2 ± 12.9 mg/dL; with C57BL/6J mice (setting [4]), 45.8 ± 6.1 mg/dL; in the series with C57BL/6J mice (setting [5]) it was 86.4 ± 11.1 mg/dL; in the series on C57BL/6J mice (setting [6]), 50.0 ± 11.9 mg/dL. The “increase of triglyceride concentration” value with C57BL/6J mice (setting [7]) was about 2.3 fold; with C57BL/6J mice (setting [8]), about 1.8 fold. In addition, the “effect on blood triglyceride concentration (in words)” value in the series on C57BL/6J mice is reported as “superior effect of decreasing blood triglyceride concentration”.

Source of the values: patent publication US8906952B2, “Indole derivative or pharmaceutically acceptable salt thereof, preparation method thereof, and pharmaceutical composition for preventing or treating metabolic diseases containing same as active ingredient” (Korea Research Institute of Bioscience and Biotechnology, priority 2011, dated 2014).
